Experimental data as given in ChEMBL document CHEMBL4665629, “An optimised series of substituted N-phenylpyrrolamides as DNA gyrase B inhibitors” (Eur J Med Chem, 2019).
≈ marks a conversion by molar mass, not a printed value.

Legend:
Klebsiella aerogenes = test: Antibacterial activity against Enterobacter aerogenes ATCC 13408 assessed as bacterial growth inhibition at 50 uM incubated for 24 hrs by CLSI protocol based broth microdilution assay relative to control; type: functional
Acinetobacter baumannii = test: Antibacterial activity against Acinetobacter baumannii ATCC 19606 assessed as bacterial growth inhibition at 50 uM incubated for 24 hrs by CLSI protocol based broth microdilution assay relative to control; type: functional; conditions: ATCC 19606 = CIP 70.34 = JCM 6841
Enterococcus faecium = test: Antibacterial activity against Enterococcus faecium ATCC 35667 assessed as bacterial growth inhibition at 50 uM incubated for 24 hrs by CLSI protocol based broth microdilution assay relative to control; type: functional
Klebsiella pneumoniae = test: Antibacterial activity against Klebsiella pneumoniae ATCC 700603 assessed as bacterial growth inhibition at 50 uM incubated for 24 hrs by CLSI protocol based broth microdilution assay relative to control; type: functional
Pseudomonas aeruginosa = test: Antibacterial activity against Pseudomonas aeruginosa ATCC 27853 assessed as bacterial growth inhibition at 50 uM incubated for 24 hrs by CLSI protocol based broth microdilution assay relative to control; type: functional
Escherichia coli [1] = test: Antibacterial activity against efflux pump d effect ive Escherichia coli JW5503 harbouring tolC mutant assessed as bacterial growth inhibition at 50 uM incubated for 24 hrs by CLSI protocol based broth microdilution assay relative to control; type: functional
Staphylococcus aureus = test: Antibacterial activity against Staphylococcus aureus ATCC 29213 assessed as bacterial growth inhibition at 50 uM incubated for 24 hrs by CLSI protocol based broth microdilution assay relative to control; type: functional
Escherichia coli [2] = test: Antibacterial activity against outer membrane impaired Escherichia coli JD17464 harboring lpxC mutant assessed as bacterial growth inhibition at 50 uM incubated for 24 hrs by CLSI protocol based broth microdilution assay relative to control; type: functional
[3] = target: DNA gyrase (Escherichia coli) (UniProt P0AES6+P0AES4); test: Inhibition of Escherichia coli DNA gyrase assessed as residual activity at 1 uM using biotinylated oligonucleotide as substrate incubated for 30 mins in presence of ATP by fluorescence-based microplate reader assay relative to control; type: protein-complex assay
Escherichia coli [4] = test: Antibacterial activity against Escherichia coli ATCC 25922 assessed as bacterial growth inhibition at 50 uM incubated for 24 hrs by CLSI protocol based broth microdilution assay relative to control; type: functional
Enterococcus faecalis = test: Antibacterial activity against Enterococcus faecalis ATCC 29212 assessed as bacterial growth inhibition at 50 uM incubated for 24 hrs by CLSI protocol based broth microdilution assay relative to control; type: functional
[5] = target: Topoisomerase IV (Staphylococcus aureus) (UniProt P0C1U9+P0C1S7); test: Inhibition of Staphylococcus aureus DNA topoisomerase 4 assessed as residual activity at 1 uM using biotinylated oligonucleotide as substrate incubated for 30 mins in presence of ATP by fluorescence-based microplate reader assay relative to control; type: protein-complex assay
[6] = Inhibition of Escherichia coli DNA topoisomerase 4 assessed as residual activity at 1 uM using biotinylated oligonucleotide as substrate incubated for 30 mins in presence of ATP by fluorescence-based microplate reader assay relative to control
DNA gyrase = DNA gyrase (Escherichia coli, UniProt P0AES4+P0AES6); test: Inhibition of Escherichia coli DNA gyrase using biotinylated oligonucleotide as substrate incubated for 30 mins in presence of ATP by fluorescence-based microplate reader assay; type: protein-complex assay
[7] = target: DNA gyrase (Staphylococcus aureus) (UniProt P0A0K8+P20831); test: Inhibition of Staphylococcus aureus DNA gyrase assessed as residual activity at 1 uM using biotinylated oligonucleotide as substrate incubated for 30 mins in presence of ATP by fluorescence-based microplate reader assay relative to control; type: protein-complex assay
Escherichia coli [8] = test: Antibacterial activity against efflux pump d effect ive Escherichia coli JW5503 harbouring tolC mutant assessed as minimum inhibitory concentration required for >=90% inhibition of bacterial growth by CLSI protocol based broth microdilution assay; type: functional

Chain of DNA gyrase (Staphylococcus aureus) (P0A0K8 2-644 limits assumed): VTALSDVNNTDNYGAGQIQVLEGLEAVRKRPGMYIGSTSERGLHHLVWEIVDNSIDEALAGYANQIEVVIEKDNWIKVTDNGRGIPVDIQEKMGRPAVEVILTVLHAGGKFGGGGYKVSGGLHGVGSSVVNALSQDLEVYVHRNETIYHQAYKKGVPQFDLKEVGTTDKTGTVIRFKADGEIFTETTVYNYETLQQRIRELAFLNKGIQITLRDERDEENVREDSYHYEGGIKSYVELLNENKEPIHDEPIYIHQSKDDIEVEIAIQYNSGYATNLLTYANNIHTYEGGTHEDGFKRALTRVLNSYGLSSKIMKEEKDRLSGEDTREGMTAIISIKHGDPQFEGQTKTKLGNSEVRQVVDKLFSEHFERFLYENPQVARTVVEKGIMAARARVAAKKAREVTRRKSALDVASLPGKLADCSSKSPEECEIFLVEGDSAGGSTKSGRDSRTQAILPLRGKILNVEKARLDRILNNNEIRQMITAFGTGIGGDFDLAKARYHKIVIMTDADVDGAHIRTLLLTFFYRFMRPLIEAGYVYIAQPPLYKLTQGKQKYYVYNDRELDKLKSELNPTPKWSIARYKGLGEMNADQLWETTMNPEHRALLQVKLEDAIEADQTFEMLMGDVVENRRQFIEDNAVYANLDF
Chain of DNA gyrase (Staphylococcus aureus) (P20831 whole entry partner): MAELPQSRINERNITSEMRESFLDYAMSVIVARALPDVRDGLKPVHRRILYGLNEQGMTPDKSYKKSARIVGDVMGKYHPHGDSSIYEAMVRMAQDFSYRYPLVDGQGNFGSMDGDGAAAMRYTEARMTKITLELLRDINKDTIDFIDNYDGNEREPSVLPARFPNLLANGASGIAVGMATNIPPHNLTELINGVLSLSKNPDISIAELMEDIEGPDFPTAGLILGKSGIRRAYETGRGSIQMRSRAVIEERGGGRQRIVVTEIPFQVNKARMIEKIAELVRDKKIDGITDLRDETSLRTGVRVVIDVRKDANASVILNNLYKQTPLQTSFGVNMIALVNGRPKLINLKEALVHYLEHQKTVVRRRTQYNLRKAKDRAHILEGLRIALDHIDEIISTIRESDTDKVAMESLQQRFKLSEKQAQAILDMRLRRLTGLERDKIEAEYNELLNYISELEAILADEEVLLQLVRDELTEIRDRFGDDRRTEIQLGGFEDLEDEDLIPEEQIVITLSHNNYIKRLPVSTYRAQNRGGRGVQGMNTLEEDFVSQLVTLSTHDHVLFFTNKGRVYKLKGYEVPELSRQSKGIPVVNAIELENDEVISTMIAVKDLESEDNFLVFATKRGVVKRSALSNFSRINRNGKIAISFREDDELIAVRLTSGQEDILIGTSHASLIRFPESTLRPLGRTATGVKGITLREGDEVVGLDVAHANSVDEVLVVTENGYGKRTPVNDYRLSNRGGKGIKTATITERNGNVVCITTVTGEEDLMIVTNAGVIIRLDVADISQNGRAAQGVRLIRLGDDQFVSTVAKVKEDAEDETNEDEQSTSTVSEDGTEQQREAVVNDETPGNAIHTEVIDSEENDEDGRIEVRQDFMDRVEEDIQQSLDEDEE

SMILES	inhibition at 50 µM (Klebsiella aerogenes)	inhibition at 50 µM (Acinetobacter baumannii)	inhibition at 50 µM (Enterococcus faecium)	inhibition at 50 µM (Klebsiella pneumoniae)	inhibition at 50 µM (Pseudomonas aeruginosa)	inhibition at 50 µM (Escherichia coli [1])	inhibition at 50 µM (Staphylococcus aureus)	inhibition at 50 µM (Escherichia coli [2])	Activity [3]	inhibition at 50 µM (Escherichia coli [4])	inhibition at 50 µM (Enterococcus faecalis)	Activity [5]	Activity [6]	IC50 (DNA gyrase)	Activity [7]	MIC (Escherichia coli [8])
COC(=O)CNC(=O)c1ccc(NC(=O)c2[nH]c(C)c(Cl)c2Cl)c(O[C@H]2CCN(C(=O)OC(C)(C)C)C2)c1	7%	9%	23%	8%	12%	-4%	12%	30%	93%	10%						
COC(=O)CNS(=O)(=O)c1ccc(NC(=O)c2[nH]c(C)c(Cl)c2Cl)cc1	-4%	9%	34%	1%	5%	-1%	12%	4%	87%	18%	8%					
Cc1[nH]c(C(=O)Nc2ccc(S(N)(=O)=O)cc2)c(Cl)c1Cl	1%	6%	54%	4%	-4%	2%	12%	4%	82%	13%	6%					
COC(=O)[C@@H](C)NC(=O)c1ccc(NC(=O)c2[nH]c(C)c(Cl)c2Cl)c(OC(C)C)c1	12%	8%	-15%	16%	5%	11%	29%	27%	87%	12%	-41%					
Cc1[nH]c(C(=O)Nc2ccc(S(=O)(=O)Nc3nccs3)cc2)c(Cl)c1Cl	-2%	10%	43%	1%	10%	5%	-2%	17%	100%	13%	23%					
COC(=O)CNC(=O)c1ccc(NC(=O)c2cc(Br)c(Br)[nH]2)c(OC2CCN(C(=O)OC(C)(C)C)CC2)c1	-9%	-4%	-75%	-12%	-1%	-4%	-17%	1%	100%	-8%						
Cc1[nH]c(C(=O)Nc2ccc(C(=O)N[C@H](C)C(=O)O)cc2OC2CCN(C(=O)OC(C)(C)C)CC2)c(Cl)c1Cl	-5%	15%	59%	-13%	-10%	-8%	-22%	10%		-7%		79%	99%	71 nM	68%	
CCOC(=O)c1cc2cc(NC(=O)c3[nH]c(C)c(Cl)c3Cl)ccc2[nH]1									100%							
Cc1[nH]c(C(=O)Nc2ccc(S(=O)(=O)NCC(=O)O)cc2)c(Cl)c1Cl	7%	5%	3%	7%	-4%	6%	4%	1%	87%	7%	9%					
CC(C)(C)OC(=O)N1CCC(Oc2cc(C(=O)NCC(=O)O)ccc2NC(=O)c2cc(Br)c(Br)[nH]2)CC1	-14%	-4%	-76%	9%	6%	-4%	-18%	-6%		-14%				630 nM		
N#CCNC(=O)c1ccc(NC(=O)c2cc(Br)c(Br)[nH]2)cc1	7%	2%	2%	5%	11%	-9%	-5%	-5%		2%	7%			960 nM		
CCOC(=O)C(NC(=O)c1ccc(NC(=O)c2cc(Br)c(Br)[nH]2)cc1)C(=O)OCC	1%	3%	-8%	1%	5%	-8%	12%	2%	78%	9%	8%					
COC(=O)[C@@H](C)NC(=O)c1ccc(NC(=O)c2[nH]c(C)c(Cl)c2Cl)c(OC2CCN(C(=O)OC(C)(C)C)CC2)c1	22%	36%	52%	2%	33%	40%	30%	44%	94%	18%						
Cc1[nH]c(C(=O)Nc2ccc(C(=O)NS(C)(=O)=O)cc2)c(Cl)c1Cl	-8%	6%	-3%	-2%	3%	73%	5%	4%		15%	16%	81%	98%	160 nM	55%	
Cc1[nH]c(C(=O)Nc2ccc(C(=O)NCC(=O)O)cc2O[C@H]2CCN(C(=O)OC(C)(C)C)C2)c(Cl)c1Cl	6%	1%	9%	9%	14%	2%	-1%	-2%		5%				92 nM		
CCOC(=O)C(NC(=O)c1ccc(NC(=O)c2[nH]c(C)c(Cl)c2Cl)cc1)C(=O)OCC	11%	9%	11%	18%	-6%	8%	32%	8%		13%	14%			7700 nM		
O=C(O)CNC(=O)c1ccc(NC(=O)c2cc(Br)c(Br)[nH]2)c(OC2CCNCC2)c1	3%	1%	2%	4%	2%	-17%	3%	5%		-9%		100%	100%	20 nM	67%	
COC(=O)CNC(=O)c1ccc(NC(=O)c2[nH]c(C)c(Cl)c2Cl)c(OC2CCN(C(=O)OC(C)(C)C)CC2)c1	5%	15%	-19%	-2%	-18%	7%	8%	31%	100%	26%						
Cc1[nH]c(C(=O)Nc2ccc3[nH]c(C(=O)O)cc3c2)c(Cl)c1Cl	6%	3%	20%	-2%	-2%	99%	6%	2%		2%	54%			98 nM		12.5 µM (≈ 4.4 µg/mL)
